Source: ChEMBL document CHEMBL1201862, “PubChem BioAssay data set” (2004)
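Five compound concentrations were applied to cells in 96-well plates for 48 hours; endpoints were derived by simple linear interpolation of the resulting dose-response curve. Abbreviation: GI50, concentration required for 50% inhibition of growth.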 The source made the active and inactive calls. Rule as the data show it: active = GI50 up to about 1.1 µM and inactive = higher.

Tests used:
Assay in all cases: growth of human tumour cells (NCI), 48 h
[1] = system: A549
[2] = system: COLO 205
[3] = system: DU-145
[4] = system: HCC 2998
[5] = system: HCT-15
[6] = system: HOP-62
[7] = system: HT-29
[8] = system: K562
[9] = system: LOX IMVI
[10] = system: NCI-H23
[11] = system: OVCAR-3
[12] = system: OVCAR-5
[13] = system: RXF 393
[14] = system: SF-268
[15] = system: SF-539
[16] = system: SNB-19
[17] = system: TK-10
[18] = system: UACC-62
[19] = system: UO-31
[20] = system: HOP-18

Row | SMILES | GI50 [1] | GI50 [2] | GI50 [3] | GI50 [4] | GI50 [5] [µM] | GI50 [6] | GI50 [7] | GI50 [8] | GI50 [9] | GI50 [10] | GI50 [11] | GI50 [12] | GI50 [13] | GI50 [14] | GI50 [15] | GI50 [16] | GI50 [17] | GI50 [18] | GI50 [19] | GI50 [20]
1 | CN(C)c1ccc(/C=C2\C[C@H]3[C@@H]4CCc5cc(O)ccc5[C@H]4CC[C@]3(C)C2=O)cc1 | > 100 µM (inactive) | 64.7 µM (inactive) | > 100 µM (inactive) | > 100 µM (inactive) | > 100 | 30.5 µM (inactive) | 38.3 µM (inactive) | > 100 µM (inactive) | > 100 µM (inactive) | > 100 µM (inactive) | > 100 µM (inactive) | > 100 µM (inactive) | 48.5 µM (inactive) | 21.3 µM (inactive) | 23.4 µM (inactive) | > 100 µM (inactive) | > 100 µM (inactive) | 17.1 µM (inactive) | > 100 µM (inactive) | –
2 | CCn1c2ccccc2c2cc(NC(=O)c3c(C)[nH]c(=O)[nH]c3=S)ccc21 | – | 22.9 µM (inactive) | 42.1 µM (inactive) | 47.6 µM (inactive) | 41.2 | 77.8 µM (inactive) | 48.2 µM (inactive) | 28.8 µM (inactive) | > 100 µM (inactive) | 38 µM (inactive) | 35.7 µM (inactive) | 21.4 µM (inactive) | 35.6 µM (inactive) | – | – | 49.1 µM (inactive) | 53.6 µM (inactive) | 31.9 µM (inactive) | 51.3 µM (inactive) | –
3 | COc1cccc(NC(=O)CC(=O)NNCC(=O)Nc2nnc(-c3ccc(N(CCC#N)S(=O)(=O)c4ccccc4)cc3)s2)c1 | 67.5 µM (inactive) | 53 µM (inactive) | – | > 100 µM (inactive) | > 100 | 88.7 µM (inactive) | – | 37.6 µM (inactive) | 75.7 µM (inactive) | 48.3 µM (inactive) | 78.3 µM (inactive) | 78.3 µM (inactive) | 56.4 µM (inactive) | 82.4 µM (inactive) | > 100 µM (inactive) | > 100 µM (inactive) | > 100 µM (inactive) | 30.7 µM (inactive) | 47.4 µM (inactive) | > 100 µM (inactive)
4 | COc1ccc(/C(Cl)=C(\C=O)c2ccc(Cl)c(Cl)c2)cc1OC | – | 16.7 µM (inactive) | – | – | 4.34 | 16.3 µM (inactive) | 2.47 µM (inactive) | 3.87 µM (inactive) | 3.37 µM (inactive) | 2.9 µM (inactive) | 13.1 µM (inactive) | – | – | 3.59 µM (inactive) | 5.89 µM (inactive) | 14.9 µM (inactive) | 19 µM (inactive) | 4.63 µM (inactive) | 7.33 µM (inactive) | 6.76 µM (inactive)
5 | C1CCC(OC2CSC2)OC1 (stereo not given) | > 100 µM (inactive) | > 100 µM (inactive) | > 100 µM (inactive) | > 100 µM (inactive) | > 100 | – | > 100 µM (inactive) | > 100 µM (inactive) | > 100 µM (inactive) | > 100 µM (inactive) | > 100 µM (inactive) | – | > 100 µM (inactive) | > 100 µM (inactive) | – | > 100 µM (inactive) | > 100 µM (inactive) | – | > 100 µM (inactive) | –
6 | Cc1c2cnccc2c(C)c2c1c1ccccc1n2CCCCCCCl | > 48.2 µM (inactive) | 28.2 µM (inactive) | – | > 46.8 µM (inactive) | > 50 | > 50 µM (inactive) | 29.6 µM (inactive) | 18.1 µM (inactive) | 30.4 µM (inactive) | 38.6 µM (inactive) | 49.7 µM (inactive) | > 46.2 µM (inactive) | > 50 µM (inactive) | > 45 µM (inactive) | > 50 µM (inactive) | 40.4 µM (inactive) | – | > 50 µM (inactive) | > 47.5 µM (inactive) | > 7.93 µM (inactive)
7 | CCNc1nnc(-c2nsc3ccccc23)s1 | > 100 µM (inactive) | > 100 µM (inactive) | – | 67.6 µM (inactive) | > 100 | 33.7 µM (inactive) | 26.5 µM (inactive) | > 100 µM (inactive) | > 100 µM (inactive) | 45.5 µM (inactive) | 17.8 µM (inactive) | > 100 µM (inactive) | 32.8 µM (inactive) | 23.5 µM (inactive) | 56.2 µM (inactive) | 16.3 µM (inactive) | > 100 µM (inactive) | > 100 µM (inactive) | 24.8 µM (inactive) | 11.5 µM (inactive)
